Data: patent publication US11452720B2, “Crystalline polymorphs of the free base of 2-hydroxy-6-((2-(1-isopropyl-1H-pyrazol-5-yl)pyridin-3-yl)methoxy)benzaldehyde” (Global Blood Therapeutics, Inc., priority 2014, dated 2022)
“Also recorded” adds a separate entry of the source. Where a name gives a salt, the structure may show the parent alone. Each block holds one molecule with its values, some of them ahead of it.

Experiments:
Assay type in all cases: physicochemical
[1] = Disproportionation of the sulfate salt when precipitated with water; conditions: from solvents such as dimethyl sulfoxide and methanol when precipitated with water
Source text: This invention arises in part out the discovery that an HCl salt of Compound 1 disproportionates or loses HCl, and a disproportionation of the HCl salt of Compound 1 in water generates the free base and disproportionation was facile upon exposure to elevated humidity, with wet milling, and in direct contact with water (e.g. slurry). The sulfate salt of Compound 1 also disproportionates from certain solvents such as dimethyl sulfoxide and methanol when precipitated with water. The volatilization of HCl was evident within hours of exposure to drying conditions. For example, partial conversion to the free base was observed within 12 hours at 30° C. Accordingly, the free base of Compound 1 provides a stabler chemical entity compared to the corresponding HCl or sulfate and such other salt.

[2] = Estimated transition temperature and relative thermodynamic stability of free base forms
Source text: Phase transitions of solids can be thermodynamically reversible or irreversible. Crystalline forms which transform reversibly at a specific transition temperature (T) are called enantiotropic polymorphs. If the crystalline forms are not interconvertable under these conditions, the system is monotropic (one thermodynamically stable form). Several rules have been developed to predict the relative thermodynamic stability of polymorphs and whether the relationship between the polymorphs is enantiotropic or monotropic. The heat of fusion rule is applied within this study. The heat of fusion rule states that if the higher melting form has the lower heat of fusion then the two forms are enantiotropic, otherwise they are monotropic.
The estimated transition temperature between two enantiotropically related forms can be calculated from their melt onsets and heats of fusion based on the equation shown below.

[3] = Physical stability evaluation of Free Base Form II and Material N (modulated DSC / temperature and humidity exposure, then XRPD); conditions: for change in physical form by XRPD: 40° C./75% RH, 80° C./80% RH for 9 days; for change in physical form by XRPD after modulated DSC: underlying heating rate 0.02° C. min^−1
Experimental: DSC was modulated at low underlying heating rate, followed by X-ray powder diffraction. A low underlying heating rate was used of 0.02° C. min^−1. The temperature was 80° C. for form N and 90° C. for form II. Exposure was essentially isothermal, covering a temperature range with sensitivity to detect changes in physical form. The resultant materials were examined by X-ray powder diffraction.
Forms II and N were exposed to 40° C./75% relative humidity (RH), 80° C., 80° C./80% RH for 9 days followed by X-ray powder diffraction.

[4] = Extended solvent mediated maturation of form II / form N mixtures in hexane; conditions: temperatures of 20° C. and lower
Experimental: Extended solvent mediated maturation studies were conducted with 1:1 w/w mixtures of polymorphic form II and form N. Hexane provided a good medium for solvent assessments. The temperatures used include −20° C., −10° C., 0° C., 10° C., 20° C., 30° C., 40° C. and 50° C. […] Solids derived from maturation at −20° C., −10° C., 0° C., 10° C., 20° C. were analyzed by X-ray powder diffraction.

[5] = Ambient storage of Form II, reanalysis by XRPD; conditions: after 7 days
Source text: The form is known to be thermodynamically metastable, relative to Material N, at this condition; however, the kinetics of polymorph conversion may be slow at ambient conditions in the solid state.

[6] = Dynamic vapor sorption (DVS) with post-DVS XRPD; conditions: for DVS weight loss from 95 to 5% RH: desorption 95 to 5% RH; for post-DVS XRPD result: material recovered from the DVS experiment; for DVS weight gain from 5 to 95% RH: sorption 5 to 95% RH
Experimental: Dynamic vapor sorption (DVS) data were collected on a VTI SGA-100 Vapor Sorption Analyzer. NaCl and PVP were used as calibration standards. Samples were not dried prior to analysis. Adsorption and desorption data were collected over a range from 5 to 95% RH at 10% RH increments under a nitrogen purge. The equilibrium criterion used for analysis was less than 0.0100% weight change in 5 minutes with a maximum equilibration time of 3 hours. Data were not corrected for the initial moisture content of the samples.

[7] = Physical stability of the HCl salt exposed to water (disproportionation, XRPD)
Experimental: Solutions were prepared by adding enough solids to a given solvent so that excess solids were present. The mixture was then agitated in a sealed vial at either ambient or an elevated temperature. After a given amount of time, the solids were isolated for analysis.
(§1) The HCl salt (termed “HCl Form I”) was subjected to various stress conditions and monitored by XRPD to evaluate physical stability. […] Disproportionation is further evident with wet milling or in direct contact with water (e.g. slurry) as shown by the presence of Free Base Forms I or II, identified by XRPD. […] (after 12 hrs), 40° C. (after 6 hrs), and at 40° C./48 mmHg (after 6 hrs). • Free Base Material C becomes evident at more extreme conditions involving elevated temperatures. Heating HCl Form I up to 125° C. induces the loss of acidic volatiles (judged visually by use of pH paper held above sample). […] Exposing the HCl salt to 60° C. under vacuum for 6 days provides the same result. The nature of Material C is not established

[8] = Physical stability of the HCl salt with grinding (XRPD); conditions: 30 min
Experimental: Selected material was milled utilizing a Reitch Mill. The material was loaded into an agate lined milling vessel followed by the addition of an agate ball. The vessel was then placed on to the mill and milled for approximately 30 minutes at frequency of […]. The milling was stopped approximately every 10 minutes and material scraped from the wall before further milling.

[9] = Physical stability of the HCl salt exposed to elevated temperature and/or vacuum (XRPD)
Experimental: Selected materials were stressed at elevated related humidity and/or temperature. Relative humidity jars (saturated salt solutions used to generate desired relative humidity) were utilized to store selected samples. The following relative humidity jars were utilized during evaluation: 75% RH (NaCl) and 60% (NaBr), to investigate the effects of humidity. Temperatures utilized were ambient, 30, 40, 60, and 100-125° C.
Selected materials were stressed under reduced pressure for a set time period. Initial stressing was conducted with the in-house vacuum system with absolute pressure readings <500 mTorr, typically 30 to 50 mTorr (0.030 to 0.05 mm Hg). Additional vacuum stressing was conducted at 48 mmHg utilizing a portable lab vacuum and bleed to simulate conditions similar to those expected during process.
as §1

[10] = Chemical and physical stability evaluation of Free Base Form I (UPLC, XRPD)
Experimental: Three conditions were used; open to 25° C./60% RH, open to 40° C./75% RH, and closed to 60° C. Physical stability was evaluated by XRPD. Chemical stability was determined through UPLC and ^1H NMR, when applicable. Materials were tested after 1, 7, and 14 days of exposure.

Structure (SMILES): CC(C)n1nccc1-c1ncccc1COc1cccc(O)c1C=O [Form II, 2-hydroxy-6-((2-(1-isopropyl-1H-pyrazol-5-yl)pyridin-3-yl)methoxy)benzaldehyde]
Relative Stability ([2]; Above T^N-II): (II > I)
Relative Stability ([2]; Below 6° C.): N > II
Relative Stability ([2]; Between 6° C. and T^N-II): N > II > I
change in physical form by XRPD ([3]; 80° C.): No changes in physical form
change in physical form by XRPD after modulated DSC ([3]; 90° C.): No changes in physical form
XRPD after storage [5]: remained unchanged; also recorded: Free Base Form II

Structure (SMILES): CC(C)n1nccc1-c1ncccc1COc1cccc(O)c1C=O [HCl salt of Compound 1, 2-hydroxy-6-((2-(1-isopropyl-1H-pyrazol-5-yl)pyridin-3-yl)methoxy)benzaldehyde]
DVS weight loss from 95 to 5% RH [6]: 0.09% loss from 95 to 5% RH
DVS weight gain upon equilibration at 5% RH ([6]; equilibration at 5% RH): 0.03% gain upon equilibration at 5% RH
post-DVS XRPD result [6]: HCl I + Free Base Form I
post-DVS XRPD result ([6]; listed as HCl salt): disproportionation occurred
DVS weight gain from 5 to 95% RH [6]: 0.10% gain from 5 to 95% RH
disproportionation on contact with water ([7]; contact with water): Immediate disproportionation occurs; also recorded: disproportionate immediately
XRPD Result ([7]; vacuum dried, about 1 day): FB I
XRPD Result ([7]; water slurry, about 5 min): Free base (FB) I
XRPD Result ([7]; water slurry, about 5 min, listed as HCl salt): Free Base Form I
XRPD Result ([7]; water slurry, about 6 days): FB I + FB II
XRPD Result ([8]; dry): HCl I
XRPD Result ([8]; wet): HCl I + FB I
time after which conversion to Free Base Form I was observed by XRPD ([9]; 30° C.): 12 h
XRPD Result ([9]; 30° C., 6 hrs): HCl I
XRPD Result ([9]; 30° C., 12 hrs): HCl I + FB I
XRPD Result ([9]; 30° C., 24 hrs): HCl I + FB I
time within which partial conversion to the free base was observed ([9]; 30° C., drying conditions): ≤ 12 h
time after which conversion to Free Base Form I was observed by XRPD ([9]; 40° C.): 6 h
XRPD Result ([9]; 40° C. vacuum, 6 hrs): HCl I + FB I
XRPD Result ([9]; 40° C. vacuum, 12 hrs): HCl I + FB I
XRPD Result ([9]; 40° C. vacuum, 24 hrs): HCl I + FB I
XRPD Result ([9]; 40° C., 6 hrs): HCl I + FB I
XRPD Result ([9]; 40° C., 12 hrs): HCl I + FB I
XRPD Result ([9]; 40° C., 24 hrs): HCl I + FB I
time after which conversion to Free Base Form I was observed by XRPD ([9]; 40° C./48 mmHg): 6 h
XRPD Result ([9]; 60° C. vacuum, 6 days): HCl I + FB I +
XRPD Result ([9]; 60° C. vacuum, 6 days, listed as HCl salt): same result
XRPD Result ([9]; 60° C., 6 days): HCl I + FB I
XRPD Result ([9]; 100 to 125° C., 20 min): HCl I + FB I +
XRPD Result ([9]; 100 to 125° C., 20 min, listed as HCl Form I): mixture of HCl Form I, Free Base Form I, and Free Base Material C
XRPD Result ([9]; RT vacuum, 6 days): HCl I + FB I

Structure (SMILES): CC(C)n1nccc1-c1ncccc1COc1cccc(O)c1C=O [Form I, 2-hydroxy-6-((2-(1-isopropyl-1H-pyrazol-5-yl)pyridin-3-yl)methoxy)benzaldehyde]
hygroscopicity by DVS isotherm [6]: not hygroscopic
weight gain and loss through sorption/desorption ([6]; DVS): 0.2%
DVS weight loss from 95 to 5% RH [6]: 0.22% loss from 95 to 5% RH
DVS weight loss upon equilibration at 5% RH ([6]; equilibration at 5% RH): 0.02% loss upon equilibration at 5% RH
post-DVS XRPD result [6]: predominately Free Base Form I with a few additional peaks; also recorded: Free Base Form I + other Free Base Material
DVS weight gain from 5 to 95% RH [6]: 0.22% gain from 5 to 95% RH
chemical stability: level of impurities by UPLC ([10]; open 25° C./60% RH, open 40° C./75% RH, closed 60° C., after 14 days): did not rise significantly
physical stability by XRPD ([10]; open to 25° C./60% RH, 1, 7 and 14 days): remained unchanged
physical stability by XRPD ([10]; open to 40° C./75% RH and closed to 60° C., after 7 days): Free Base Form II was observed

The next lines start with results.

disproportionation of the salt [1]: disproportionates
Structure (SMILES): CC(C)n1nccc1-c1ncccc1COc1cccc(O)c1C=O [sulfate salt of Compound 1, 2-hydroxy-6-((2-(1-isopropyl-1H-pyrazol-5-yl)pyridin-3-yl)methoxy)benzaldehyde]

Relative Stability ([2]; Below 6° C.): N > II
Relative Stability ([2]; Between 6° C. and T^N-II): N > II > I
change in physical form by XRPD ([3]; 80° C.): No changes in physical form
change in physical form by XRPD after modulated DSC ([3]; 80° C.): No changes in physical form
Structure (SMILES): CC(C)n1nccc1-c1ncccc1COc1cccc(O)c1C=O [Material N, 2-hydroxy-6-((2-(1-isopropyl-1H-pyrazol-5-yl)pyridin-3-yl)methoxy)benzaldehyde]
relative thermodynamic stability [4]: thermodynamically more stable than form II
